Data published in PubChem BioAssay AID1963974 (Molecular Pharmacology Branch, DTP, NCI, 2024).

Tested on: 648629-189-R-J1-PDC spheroids with HUVEC/MSC, viability
Assay: Anticancer human tumor 648629-189-R-J1-PDC patient-derived bladder carcinoma cell line growth inhibition [PI3K]
Settings: for IC50: curve of first compound; for viability, T/C: stronger effect = lower value; active = viability on the fitted dose curve at most 10% of control; inactive = the rest
Summary of the method: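 We assembled tumor spheroids that included a stromal compartment of HUVEC and MSCs, then exposed them to targeted agents alone and together with PI3K pathway inhibitors. Concentration series descended by half-log from clinically achievable Cmax levels. Viability served as the endpoint.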

[1] = second compound 0.0316 µM, first compound 0.0316 µM
[2] = second compound 0.0316 µM, first compound 0.1 µM
[3] = second compound 0.1 µM, first compound 0.0316 µM
[4] = second compound 0.1 µM, first compound 0.1 µM
[5] = second compound 0.316 µM, first compound 0.0316 µM
[6] = second compound 0.316 µM, first compound 0.1 µM
[7] = second compound 1 µM, first compound 0.0316 µM
[8] = second compound 1 µM, first compound 0.1 µM
[9] = second compound 3.16 µM, first compound 0.0316 µM
[10] = second compound 3.16 µM, first compound 0.1 µM
[11] = second compound 10 µM, first compound 0.0316 µM
[12] = second compound 10 µM, first compound 0.1 µM
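Note: spheroids exposed to agents for seven days before reading.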
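Throughout, for viability, T/C: percent of vehicle control luminescence where 100% = DMSO treated spheroids.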

CC(C)n1nc(-c2ccc3oc(N)nc3c2)c2c(N)ncnc21 + Cc1nc(NC(=O)N2CCCC2C(N)=O)sc1-c1ccnc(C(C)(C)C(F)(F)F)c1
< 0.316 nM: IC50 (second compound 10 µM)
inactive: viability, T/C (second compound 0.0316 µM, first compound 0.000316 µM) 111% | viability, T/C (second compound 0.0316 µM, first compound 0.001 µM) 95.1% | viability, T/C (second compound 0.0316 µM, first compound 0.00316 µM) 109% | viability, T/C (second compound 0.0316 µM, first compound 0.01 µM) 97.5% | viability, T/C [1] 70.2% | viability, T/C [2] 32.6% | viability, T/C (second compound 0.1 µM, first compound 0.000316 µM) 102% | viability, T/C (second compound 0.1 µM, first compound 0.001 µM) 94.9% | viability, T/C (second compound 0.1 µM, first compound 0.00316 µM) 91.7% | viability, T/C (second compound 0.1 µM, first compound 0.01 µM) 84.6% | viability, T/C [3] 68% | viability, T/C [4] 32.8% | viability, T/C (second compound 0.316 µM, first compound 0.000316 µM) 87.3% | viability, T/C (second compound 0.316 µM, first compound 0.001 µM) 83.5% | viability, T/C (second compound 0.316 µM, first compound 0.00316 µM) 83.5% | viability, T/C (second compound 0.316 µM, first compound 0.01 µM) 82% | viability, T/C [5] 66.1% | viability, T/C [6] 29.1% | viability, T/C (second compound 1 µM, first compound 0.000316 µM) 80.9% | viability, T/C (second compound 1 µM, first compound 0.001 µM) 85.2% | viability, T/C (second compound 1 µM, first compound 0.00316 µM) 74.2% | viability, T/C (second compound 1 µM, first compound 0.01 µM) 64.5% | viability, T/C [7] 53.9% | viability, T/C [8] 23.2% | viability, T/C (second compound 3.16 µM, first compound 0.000316 µM) 63.9% | viability, T/C (second compound 3.16 µM, first compound 0.001 µM) 54.8% | viability, T/C (second compound 3.16 µM, first compound 0.00316 µM) 60.5% | viability, T/C (second compound 3.16 µM, first compound 0.01 µM) 48.6% | viability, T/C [9] 40.7% | viability, T/C [10] 19.1% | viability, T/C (second compound 10 µM, first compound 0.000316 µM) 41.4% | viability, T/C (second compound 10 µM, first compound 0.001 µM) 37.5% | viability, T/C (second compound 10 µM, first compound 0.00316 µM) 37.5% | viability, T/C (second compound 10 µM, first compound 0.01 µM) 33.6% | viability, T/C [11] 27.7% | viability, T/C [12] 9.34%
56.7 nM: IC50 (second compound 0.1 µM)
58.6 nM: IC50 (second compound 0.0316 µM)
33.3 nM: IC50 (second compound 1 µM)
11 nM: IC50 (second compound 3.16 µM)
52.7 nM: IC50 (second compound 0.316 µM)

CC1(C)CCC(CN2CCN(c3ccc(C(=O)NS(=O)(=O)c4ccc(NCC5CCOCC5)c([N+](=O)[O-])c4)c(Oc4cnc5[nH]ccc5c4)c3)CC2)=C(c2ccc(Cl)cc2)C1 + Cc1nc(NC(=O)N2CCCC2C(N)=O)sc1-c1ccnc(C(C)(C)C(F)(F)F)c1
4720 nM: IC50 (second compound 0.316 µM)
inactive: viability, T/C [1] 122% | viability, T/C [2] 100% | viability, T/C (second compound 0.0316 µM, first compound 0.316 µM) 102% | viability, T/C (second compound 0.0316 µM, first compound 1 µM) 91.6% | viability, T/C (second compound 0.0316 µM, first compound 3.16 µM) 78.4% | viability, T/C (second compound 0.0316 µM, first compound 10 µM) 9.8% | viability, T/C [3] 106% | viability, T/C [4] 102% | viability, T/C (second compound 0.1 µM, first compound 0.316 µM) 106% | viability, T/C (second compound 0.1 µM, first compound 1 µM) 94.9% | viability, T/C (second compound 0.1 µM, first compound 3.16 µM) 71.6% | viability, T/C [5] 98.3% | viability, T/C [6] 85.1% | viability, T/C (second compound 0.316 µM, first compound 0.316 µM) 92.2% | viability, T/C (second compound 0.316 µM, first compound 1 µM) 84.4% | viability, T/C (second compound 0.316 µM, first compound 3.16 µM) 72.5% | viability, T/C [7] 83.8% | viability, T/C [8] 78.1% | viability, T/C (second compound 1 µM, first compound 0.316 µM) 74.3% | viability, T/C (second compound 1 µM, first compound 1 µM) 78.5% | viability, T/C (second compound 1 µM, first compound 3.16 µM) 73.2% | viability, T/C [9] 61.2% | viability, T/C [10] 57% | viability, T/C (second compound 3.16 µM, first compound 0.316 µM) 58.3% | viability, T/C (second compound 3.16 µM, first compound 1 µM) 57.9% | viability, T/C (second compound 3.16 µM, first compound 3.16 µM) 56% | viability, T/C (second compound 3.16 µM, first compound 10 µM) 12.8% | viability, T/C [11] 43.5% | viability, T/C [12] 37.1% | viability, T/C (second compound 10 µM, first compound 0.316 µM) 40.1% | viability, T/C (second compound 10 µM, first compound 1 µM) 38.3% | viability, T/C (second compound 10 µM, first compound 3.16 µM) 43.1% | viability, T/C (second compound 10 µM, first compound 10 µM) 7.34%
active: viability, T/C (second compound 0.1 µM, first compound 10 µM) 9.33% | viability, T/C (second compound 0.316 µM, first compound 10 µM) 9.78% | viability, T/C (second compound 1 µM, first compound 10 µM) 6.85%
4730 nM: IC50 (second compound 1 µM)
< 31.6 nM: IC50 (second compound 10 µM)
4710 nM: IC50 (second compound 0.1 µM)
3710 nM: IC50 (second compound 3.16 µM)
4850 nM: IC50 (second compound 0.0316 µM)
